US20230093099A1, “COMPOUNDS AND METHODS OF TREATING CANCERS” (CULLGEN (SHANGHAI), INC., priority 2019, published 2023)

test system: RS4;11 cells; test: Cell viability assay (CellTiter-Glo) in RS4;11 cells; assay type: cell-based; conditions: Homo sapiens, 72 h; RS4;11 ALL cells treated for three days; read-out: cell viability inhibition IC50
Summary of the method: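 RS4;11 cells seeded at 5000 per well, exposed for 3 days to 8- or 12-point 3-fold serial dilutions. Viability read by CellTiter-Glo luminescence; IC50 fitted by nonlinear least-squares regression.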

Question: With `CS(=O)(=O)c1ccc(-c2cccc3nc(Nc4ccc(N5CCN(C(=O)CCCCCNc6ccc7c(c6)C(=O)N(C6CCC(=O)NC6=O)C7=O)CC5)cc4)nn23)cc1` (centres unmarked) [JA-198, 2-(2,6-dioxopiperidin-3-yl)-5-((6-(4-(4-((5-(4-(methylsulfonyl)phenyl)-[1,2,4]triazolo[1,5-a]pyridin-2-yl)amino)phenyl)piperazin-1-yl)-6-oxohexyl)amino)isoindoline-1,3-dione] as the molecule, how does the IC50 read?
Answer: The IC50 was under 100 nM.

same assay, conditions: Homo sapiens, 72 h; RS4;11 cells; cell viability, 3 days, CellTiter-Glo; read-out: IC50

Question: With `Cc1cnc(Nc2ccc(N3CCN(C(=O)CCCCC(=O)N[C@H](C(=O)N4C[C@H](O)C[C@H]4C(=O)NCc4ccc(-c5scnc5C)cc4)C(C)(C)C)CC3)cc2)nc1Nc1cccc(S(=O)(=O)NC(C)(C)C)c1` [JA-024, (2S,4R)-1-((S)-2-(6-(4-(4-((4-((3-(N-(tert-Butyl)sulfamoyl)phenyl)amino)-5-methylpyrimidin-2-yl)amino)phenyl)piperazin-1-yl)-6-oxohexanamido)-3,3-dimethylbutanoyl)-4-hydroxy-N-(4-(4-methylthiazol-5-yl)benzyl)pyrrolidine-2-carboxamide] as the molecule, how does the IC50 read?
Answer: The IC50 was over 10000 nM.

Question: With `CS(=O)(=O)c1ccc(-c2cccc3nc(Nc4ccc(N5CCN(CC(=O)NCCOCCNc6ccc7c(c6)C(=O)N(C6CCC(=O)NC6=O)C7=O)CC5)cc4)nn23)cc1` (centres unmarked) [JA-212, N-(2-(2-((2-(2,6-Dioxopiperidin-3-yl)-1,3-dioxoisoindolin-5-yl)amino)ethoxy)ethyl)-2-(4-(4-((5-(4-(methylsulfonyl)phenyl)-[1,2,4]triazolo[1,5-a]pyridin-2-yl)amino)phenyl)piperazin-1-yl)acetamide] as the molecule, how does the IC50 read?
Answer: The IC50 was over 10000 nM.

Question: For `Cc1cnc(Nc2ccc(N3CCN(CC(=O)NCCCCNc4cccc5c4C(=O)N(C4CCC(=O)NC4=O)C5=O)CC3)cc2)nc1Nc1cccc(S(=O)(=O)NC(C)(C)C)c1` (centres unmarked) [JA-092, 2-(4-(4-((4-((3-(N-(tert-Butyl)sulfamoyl)phenyl)amino)-5-methylpyrimidin-2-yl)amino)phenyl)piperazin-1-yl)-N-(4-((2-(2,6-dioxopiperidin-3-yl)-1,3-dioxoisoindolin-4-yl)amino)butyl)acetamide], which IC50 is on record?
Answer: The IC50 was 2830 nM.

Question: With `O=C1CCC(N2Cc3ccc(OCCCCCC(=O)N4CCC(n5cc(-c6cnc7cccc(-c8cc(F)c(CN9CCOCC9)c(F)c8)c7n6)cn5)CC4)cc3C2=O)C(=O)N1` (centres unmarked) [JA-274, 3-(6-((6-(4-(4-(8-(3,5-Difluoro-4-(morpholinomethyl)phenyl)quinoxalin-2-yl)-1H-pyrazol-1-yl)piperidin-1-yl)-6-oxohexyl)oxy)-1-oxoisoindolin-2-yl)piperidine-2,6-dione] as the molecule, how does the IC50 read?
Answer: Its IC50 is 1670 nM.

Question: Which IC50 does the source give for `Cc1cnc(Nc2ccc(N3CCN(C(=O)CCCCCCCC(=O)N[C@H](C(=O)N4C[C@H](O)C[C@H]4C(=O)NCc4ccc(-c5scnc5C)cc4)C(C)(C)C)CC3)cc2)nc1Nc1cccc(S(=O)(=O)NC(C)(C)C)c1` [JA-027, (2S,4R)-1-((S)-2-(9-(4-(4-((4-((3-(N-(tert-Butyl)sulfamoyl)phenyl)amino)-5-methylpyrimidin-2-yl)amino)phenyl)piperazin-1-yl)-9-oxononanamido)-3,3-dimethylbutanoyl)-4-hydroxy-N-(4-(4-methylthiazol-5-yl)benzyl)pyrrolidine-2-carboxamide] here?
Answer: Its IC50 is over 10000 nM.

Question: For `O=C(CN1CCC(n2cc(-c3cnc4cccc(-c5cc(F)c(CN6CCOCC6)c(F)c5)c4n3)cn2)CC1)NCCOCCOCCOCCNc1ccc2c(c1)C(=O)N(C1CCC(=O)NC1=O)C2=O` (centres unmarked) [JA-171, 2-(4-(4-(8-(3,5-Difluoro-4-(morpholinomethyl)phenyl)quinoxalin-2-yl)-1H-pyrazol-1-yl)piperidin-1-yl)-N-(2-(2-(2-(2-((2-(2,6-dioxopiperidin-3-yl)-1,3-dioxoisoindolin-5-yl)amino)ethoxy)ethoxy)ethoxy)ethyl)acetamide], which IC50 is on record?
Answer: The IC50 was over 10000 nM.

Question: `CS(=O)(=O)c1ccc(-c2cccc3nc(Nc4ccc(N5CCN(C(=O)CCCCCNc6ccc7c(c6)CN(C6CCC(=O)NC6=O)C7=O)CC5)cc4)nn23)cc1` (centres unmarked) [JA-275, 3-(5-((6-(4-(4-((5-(4-(Methylsulfonyl)phenyl)-[1,2,4]triazolo[1,5-a]pyridin-2-yl)amino)phenyl)piperazin-1-yl)-6-oxohexyl)amino)-1-oxoisoindolin-2-yl)piperidine-2,6-dione] was tested. Which IC50 did it give?
Answer: Its IC50 is 176 nM.

Question: `Cc1ncsc1-c1ccc(CNC(=O)[C@@H]2C[C@@H](O)CN2C(=O)[C@@H](NC(=O)CCCCCCCCCCNC(=O)CN2CCN(c3ccc(Nc4nc5cccc(-c6ccc(S(C)(=O)=O)cc6)n5n4)cc3)CC2)C(C)(C)C)cc1` [JA-128, (2S,4R)-1-((S)-3,3-Dimethyl-2-(11-(2-(4-(4-((5-(4-(methylsulfonyl)phenyl)-[1,2,4]triazolo[1,5-a]pyridin-2-yl)amino)phenyl)piperazin-1-yl)acetamido)undecanamido)butanoyl)-4-hydroxy-N-(4-(4-methylthiazol-5-yl)benzyl)pyrrolidine-2-carboxamide] was tested. Which IC50 did it give?
Answer: The IC50 was over 10000 nM.

Question: How did the IC50 turn out when `Cc1ncsc1-c1ccc(CNC(=O)[C@@H]2C[C@@H](O)CN2C(=O)[C@@H](NC(=O)COCCOCCOCC(=O)N2CCN(c3ccc(Nc4nc5cccc(-c6ccc(S(C)(=O)=O)cc6)n5n4)cc3)CC2)C(C)(C)C)cc1` [JA-064, (2S,4R)-1-((S)-2-(tert-Butyl)-14-(4-(4-((5-(4-(methylsulfonyl)phenyl)-[1,2,4]triazolo[1,5-a]pyridin-2-yl)amino)phenyl)piperazin-1-yl)-4,14-dioxo-6,9,12-trioxa-3-azatetradecanoyl)-4-hydroxy-N-(4-(4-methylthiazol-5-yl)benzyl)pyrrolidine-2-carboxamide] was run?
Answer: The IC50 was over 10000 nM.

Question: How did the IC50 turn out when `CS(=O)(=O)c1ccc(-c2cccc3nc(Nc4ccc(N5CCN(C(=O)CCCCC#Cc6ccc7c(c6)CN(C6CCC(=O)NC6=O)C7=O)CC5)cc4)nn23)cc1` (centres unmarked) [JA-250, 3-(5-(7-(4-(4-((5-(4-(Methylsulfonyl)phenyl)-[1,2,4]triazolo[1,5-a]pyridin-2-yl)amino)phenyl)piperazin-1-yl)-7-oxohept-1-yn-1-yl)-1-oxoisoindolin-2-yl)piperidine-2,6-dione] was run?
Answer: Its IC50 is 181 nM.

Question: `CS(=O)(=O)c1ccc(-c2cccc3nc(Nc4ccc(N5CCN(CCCCCCOc6ccc7c(c6)C(=O)N(C6CCC(=O)NC6=O)C7=O)CC5)cc4)nn23)cc1` (centres unmarked) [JA-256, 2-(2,6-Dioxopiperidin-3-yl)-5-((6-(4-(4-((5-(4-(methylsulfonyl)phenyl)-[1,2,4]triazolo[1,5-a]pyridin-2-yl)amino)phenyl)piperazin-1-yl)hexyl)oxy)isoindoline-1,3-dione] was tested. Which IC50 did it give?
Answer: The IC50 was 1900 nM.

Question: How did the IC50 turn out when `O=C1CCC(N2C(=O)c3cccc(NCCCCC(=O)N4CCC(n5cc(-c6cnc7cccc(-c8cc(F)c(CN9CCOCC9)c(F)c8)c7n6)cn5)CC4)c3C2=O)C(=O)N1` (centres unmarked) [JA-003, 4-[[5-[4-[4-[8-[3,5-Difluoro-4-(morpholinomethyl)phenyl]quinoxalin-2-yl]pyrazol-1-yl]-1-piperidyl]-5-oxo-pentyl]amino]-2-(2,6-dioxo-3-piperidyl)isoindoline-1,3-dione] was run?
Answer: The IC50 was 6590 nM.

Question: `Cn1c(=O)n(C2CCC(=O)NC2=O)c2cccc(NCCCCCCC(=O)N3CCC(n4cc(-c5cnc6cccc(-c7cc(F)c(CN8CCOCC8)c(F)c7)c6n5)cn4)CC3)c21` (centres unmarked) [JA-283, 3-(4-((7-(4-(4-(8-(3,5-Difluoro-4-(morpholinomethyl)phenyl)quinoxalin-2-yl)-1H-pyrazol-1-yl)piperidin-1-yl)-7-oxoheptyl)amino)-3-methyl-2-oxo-2,3-dihydro-1H-benzo[d]imidazol-1-yl)piperidine-2,6-dione] was tested. Which IC50 did it give?
Answer: Its IC50 is over 500 nM.

Question: `Cc1ncsc1-c1ccc(CNC(=O)[C@@H]2C[C@@H](O)CN2C(=O)[C@@H](NC(=O)CCCCCCCCC(=O)N2CCC(n3cc(-c4cnc5cccc(-c6cc(F)c(CN7CCOCC7)c(F)c6)c5n4)cn3)CC2)C(C)(C)C)cc1` [JA-042, (2S,4R)-1-[(2S)-2-[[10-[4-[4-[8-[3,5-Difluoro-4-(morpholinomethyl)phenyl]quinoxalin-2-yl]pyrazol-1-yl]-1-piperidyl]-10-oxo-decanoyl]amino]-3,3-dimethyl-butanoyl]-4-hydroxy-N-[[4-(4-methylthiazol-5-yl)phenyl]methyl]pyrrolidine-2-carboxamide] was tested. Which IC50 did it give?
Answer: The IC50 was over 10000 nM.

Question: `CS(=O)(=O)c1ccc(-c2cccc3nc(Nc4ccc(N5CCN(C(=O)CCCCCNc6ccc7c(c6)C(=O)N(C6CCC(=O)NC6=O)C7=O)CC5)cc4)nn23)cc1` (centres unmarked) [JA-198, 2-(2,6-dioxopiperidin-3-yl)-5-((6-(4-(4-((5-(4-(methylsulfonyl)phenyl)-[1,2,4]triazolo[1,5-a]pyridin-2-yl)amino)phenyl)piperazin-1-yl)-6-oxohexyl)amino)isoindoline-1,3-dione] was tested. Which IC50 did it give?
Answer: Its IC50 is 7.3 nM.

Question: For `CS(=O)(=O)c1ccc(-c2cccc3nc(Nc4ccc(N5CCN(CCCCCCCc6ccc7c(c6)C(=O)N(C6CCC(=O)NC6=O)C7=O)CC5)cc4)nn23)cc1` (centres unmarked) [JA-253, 2-(2,6-Dioxopiperidin-3-yl)-5-(7-(4-(4-((5-(4-(methylsulfonyl)phenyl)-[1,2,4]triazolo[1,5-a]pyridin-2-yl)amino)phenyl)piperazin-1-yl)heptyl)isoindoline-1,3-dione], which IC50 is on record?
Answer: The IC50 was 298 nM.

Question: Which IC50 does the source give for `Cc1cnc(Nc2ccc(N3CCN(C(=O)CCCCNc4ccc5c(c4)C(=O)N(C4CCC(=O)NC4=O)C5=O)CC3)cc2)nc1Nc1cccc(S(=O)(=O)NC(C)(C)C)c1` (centres unmarked) [JA-228, N-(tert-butyl)-3-((2-((4-(4-(5-((2-(2,6-dioxopiperidin-3-yl)-1,3-dioxoisoindolin-5-yl)amino)pentanoyl)piperazin-1-yl)phenyl)amino)-5-methylpyrimidin-4-yl)amino)benzenesulfonamide] here?
Answer: Its IC50 is 2010 nM.

Question: `Cc1cnc(Nc2ccc(N3CCN(CC(=O)NCCCCCCCCCC(=O)N[C@H](C(=O)N4C[C@H](O)C[C@H]4C(=O)NCc4ccc(-c5scnc5C)cc4)C(C)(C)C)CC3)cc2)nc1Nc1cccc(S(=O)(=O)NC(C)(C)C)c1` [JA-105, (2S,4R)-1-((S)-2-(10-(2-(4-(4-((4-((3-(N-(tert-Butyl)sulfamoyl)phenyl)amino)-5-methylpyrimidin-2-yl)amino)phenyl)piperazin-1-yl)acetamido)decanamido)-3,3-dimethylbutanoyl)-4-hydroxy-N-(4-(4-methylthiazol-5-yl)benzyl)pyrrolidine-2-carboxamide] was tested. Which IC50 did it give?
Answer: The IC50 was over 10000 nM.

Question: `Cc1cnc(Nc2ccc(N3CCN(CC(=O)NCCCCCCCC(=O)N[C@H](C(=O)N4C[C@H](O)C[C@H]4C(=O)NCc4ccc(-c5scnc5C)cc4)C(C)(C)C)CC3)cc2)nc1Nc1cccc(S(=O)(=O)NC(C)(C)C)c1` [JA-103, (2S,4R)-1-((S)-2-(8-(2-(4-(4-((4-((3-(N-(tert-Butyl)sulfamoyl)phenyl)amino)-5-methylpyrimidin-2-yl)amino)phenyl)piperazin-1-yl)acetamido)octanamido)-3,3-dimethylbutanoyl)-4-hydroxy-N-(4-(4-methylthiazol-5-yl)benzyl)pyrrolidine-2-carboxamide] was tested. Which IC50 did it give?
Answer: Its IC50 is 8960 nM.
